Results on twelve molecules are retold here after ChEMBL document CHEMBL4823262, “Discovery of a Vitamin D Receptor-Silent Vitamin D Derivative That Impairs Sterol Regulatory Element-Binding Protein In Vivo” (J Med Chem, 2021).

Active and inactive are the calls of the source. The rule behind the calls is not given here.

Data set [1] addresses T1, Sterol regulatory element-binding protein 1 (Homo sapiens, UniProt P36956).
T1 sequence (P36956 whole entry): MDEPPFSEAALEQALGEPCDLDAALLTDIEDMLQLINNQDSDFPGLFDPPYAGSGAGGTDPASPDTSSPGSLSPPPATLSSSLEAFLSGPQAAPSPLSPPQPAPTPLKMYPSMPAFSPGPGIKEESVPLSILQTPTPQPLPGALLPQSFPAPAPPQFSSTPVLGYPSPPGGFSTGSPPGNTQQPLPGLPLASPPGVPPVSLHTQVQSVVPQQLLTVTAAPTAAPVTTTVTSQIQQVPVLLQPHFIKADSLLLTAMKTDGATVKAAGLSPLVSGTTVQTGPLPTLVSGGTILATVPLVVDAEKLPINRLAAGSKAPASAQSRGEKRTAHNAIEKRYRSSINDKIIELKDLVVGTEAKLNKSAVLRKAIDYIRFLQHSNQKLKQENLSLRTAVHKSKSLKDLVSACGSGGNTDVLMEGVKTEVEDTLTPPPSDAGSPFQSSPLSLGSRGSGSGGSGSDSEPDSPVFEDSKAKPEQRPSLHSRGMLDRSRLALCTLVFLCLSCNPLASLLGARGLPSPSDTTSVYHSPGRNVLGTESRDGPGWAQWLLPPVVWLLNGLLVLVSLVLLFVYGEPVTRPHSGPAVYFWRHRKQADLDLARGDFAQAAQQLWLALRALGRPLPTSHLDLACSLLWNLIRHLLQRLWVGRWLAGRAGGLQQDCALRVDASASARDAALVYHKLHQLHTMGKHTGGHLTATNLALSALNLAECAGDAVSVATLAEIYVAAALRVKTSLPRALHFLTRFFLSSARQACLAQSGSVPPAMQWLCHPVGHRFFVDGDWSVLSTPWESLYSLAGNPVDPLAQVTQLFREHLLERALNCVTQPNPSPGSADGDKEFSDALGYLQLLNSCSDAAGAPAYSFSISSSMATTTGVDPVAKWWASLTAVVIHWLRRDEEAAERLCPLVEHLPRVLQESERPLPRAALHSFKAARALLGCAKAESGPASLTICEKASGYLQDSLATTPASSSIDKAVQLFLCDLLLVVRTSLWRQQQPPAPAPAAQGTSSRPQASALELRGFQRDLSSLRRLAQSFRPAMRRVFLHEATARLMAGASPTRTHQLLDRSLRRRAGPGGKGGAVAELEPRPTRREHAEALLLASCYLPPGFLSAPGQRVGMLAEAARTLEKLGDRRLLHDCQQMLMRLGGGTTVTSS
Briefly: Inhibition of SREBP (unknown origin) expressed in CHO-K1 cells by luciferase reporter assay. The format is cell-based.

The target in a further data set is T2, Vitamin D3 receptor (Homo sapiens, UniProt P11473).
T2 sequence (P11473 whole entry): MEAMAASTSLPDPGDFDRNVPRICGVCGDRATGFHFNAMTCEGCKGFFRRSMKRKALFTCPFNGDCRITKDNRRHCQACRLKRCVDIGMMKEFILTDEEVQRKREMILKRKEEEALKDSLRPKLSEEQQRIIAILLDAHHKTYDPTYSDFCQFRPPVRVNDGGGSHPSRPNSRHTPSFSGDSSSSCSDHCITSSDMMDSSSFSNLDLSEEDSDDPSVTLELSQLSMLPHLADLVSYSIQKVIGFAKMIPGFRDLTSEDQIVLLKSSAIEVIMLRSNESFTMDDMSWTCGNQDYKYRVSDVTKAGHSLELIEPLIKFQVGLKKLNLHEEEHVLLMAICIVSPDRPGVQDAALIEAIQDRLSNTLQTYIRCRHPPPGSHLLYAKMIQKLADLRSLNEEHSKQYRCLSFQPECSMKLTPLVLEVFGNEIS
As to the kind of experiment: Agonist activity at VDR (unknown origin) expressed in CHO-K1 cells at 5 uM by luciferase reporter assay. The note with it: cho-k1, 5 µM. The format is cell-based.

The subject of a further data set is CHO. Briefly: Cytotoxicity against Chinese hamster CHO cells by beta-galactosidase reporter gene assay. The format is cell-based, Cricetulus griseus.
A short description of data set [2]: Effect on serum calcium level in mouse assessed as increase in calcium level at 10 mg/kg, ip administered once daily for 4 days […]. Format: ADME, organism-based. To be noted: in vivo, 96 h, time 4 day.
The species entered for data set [3] is Mus musculus. To be noted: Liver, dose 10.0 mg/kg, time 4.0 day.
Data set [4] is filed under the species Mus musculus. To be noted: Liver, dose 10.0 mg/kg, time 4.0 day. This is another data set of the same source.
Data set [5] concerns the target T3, Sterol regulatory element-binding protein cleavage-activating protein (Homo sapiens) (UniProt Q12770).
T3 sequence (whole entry): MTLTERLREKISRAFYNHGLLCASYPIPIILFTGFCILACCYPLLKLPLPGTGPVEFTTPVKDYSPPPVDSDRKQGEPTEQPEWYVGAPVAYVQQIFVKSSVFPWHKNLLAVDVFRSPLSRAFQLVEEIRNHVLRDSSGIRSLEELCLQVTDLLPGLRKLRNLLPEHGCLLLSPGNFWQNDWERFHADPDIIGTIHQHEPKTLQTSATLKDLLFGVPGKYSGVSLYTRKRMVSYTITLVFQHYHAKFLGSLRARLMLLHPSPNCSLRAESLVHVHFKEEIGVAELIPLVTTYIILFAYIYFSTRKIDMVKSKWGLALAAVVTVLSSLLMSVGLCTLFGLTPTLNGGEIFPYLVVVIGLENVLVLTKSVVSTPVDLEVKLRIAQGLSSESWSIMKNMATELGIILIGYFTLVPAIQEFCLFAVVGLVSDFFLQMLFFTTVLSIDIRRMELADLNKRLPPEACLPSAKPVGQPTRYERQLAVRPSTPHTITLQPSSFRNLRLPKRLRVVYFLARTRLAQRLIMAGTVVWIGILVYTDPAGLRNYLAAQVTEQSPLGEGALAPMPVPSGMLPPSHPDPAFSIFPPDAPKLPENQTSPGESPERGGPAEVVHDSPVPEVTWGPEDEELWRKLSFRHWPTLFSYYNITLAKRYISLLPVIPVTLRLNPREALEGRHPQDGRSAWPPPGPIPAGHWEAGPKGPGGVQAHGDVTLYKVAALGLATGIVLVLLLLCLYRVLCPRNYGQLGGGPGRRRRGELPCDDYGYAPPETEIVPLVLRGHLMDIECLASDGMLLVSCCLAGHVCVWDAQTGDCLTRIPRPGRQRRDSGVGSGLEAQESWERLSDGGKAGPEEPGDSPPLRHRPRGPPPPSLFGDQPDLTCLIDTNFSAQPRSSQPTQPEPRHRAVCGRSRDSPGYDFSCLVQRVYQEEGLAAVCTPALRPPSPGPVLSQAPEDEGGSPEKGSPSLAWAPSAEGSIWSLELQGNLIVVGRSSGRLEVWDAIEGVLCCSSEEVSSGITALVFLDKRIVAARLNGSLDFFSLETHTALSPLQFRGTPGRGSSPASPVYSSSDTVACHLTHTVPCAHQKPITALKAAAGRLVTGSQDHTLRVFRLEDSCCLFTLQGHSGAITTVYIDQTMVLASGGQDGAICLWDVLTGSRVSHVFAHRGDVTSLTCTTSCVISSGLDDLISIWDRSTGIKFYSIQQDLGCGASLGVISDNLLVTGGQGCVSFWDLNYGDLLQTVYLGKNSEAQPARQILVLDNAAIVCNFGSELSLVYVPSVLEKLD
Briefly: Inhibition of FLAG-tagged SCAP (unknown origin) expressed in CHO-K1 cells assessed as reduction in SCAP protein level at 5 uM after 24 hrs by Western blotting analysis. Format: cell-based.

Data set [6] is described as follows: Toxicity in ob/ob mouse assessed as sick at 10 mg/kg, ip administered 5 times per week for 4 weeks. To be noted: in vivo, 672 h. The format is organism-based.
Data set [7] in a line: Toxicity in ob/ob mouse assessed as increase in weight at 10 mg/kg, ip administered 5 times per week for 4 weeks. The note with it: in vivo, 672 h. The format is organism-based.

`CCCc1cc(-c2nc(-c3ccc(NS(C)(=O)=O)cc3)cs2)ccn1` returned an IC50 in data set [1] of 700 nM.

Regarding `C[C@H](CCCC(C)(C)O)[C@H]1CC[C@H]2/C(=C/Cn3cc(CCCCO)nn3)CCC[C@]12C`, the outcome at Vitamin D3 receptor was Active.

In the case of `C[C@H](CCCC(C)(C)O)[C@H]1CC[C@H]2/C(=C/Cn3ncnn3)CCC[C@]12C`, the outcome at Vitamin D3 receptor was Active.

`C[C@H](CCC(F)(F)C(C)(C)O)[C@H]1CC[C@H]2/C(=C/Cn3cc(-c4ccc(F)cc4)nn3)CCC[C@]12C`: at Vitamin D3 receptor, the Activity entry is given as “Not Active”.

`C[C@H](CCC(F)(F)C(C)(C)O)[C@H]1CC[C@H]2/C(=C/Cn3nnnc3-c3ccc(F)cc3)CCC[C@]12C`: the results for the Activity result on Vitamin D3 receptor and with CHO were “Not Active” and “Non-Toxic”, respectively.

Consider `C[C@H](CCCC(C)(C)O)[C@H]1CC[C@H]2/C(=C/Cn3cc(-c4ccccn4)nn3)CCC[C@]12C`, for which the result on Vitamin D3 receptor was Active.

In the case of `C[C@H](CCCC(O)(C(F)(F)F)C(F)(F)F)[C@H]1CC[C@H]2/C(=C/Cn3cc(-c4ccc(F)cc4)nn3)CCC[C@]12C`, the Activity entry on Vitamin D3 receptor is given as “Not Active”; in [2], “Toxic”. Further, the inhibition entry in the data set listed under Mus musculus [3] and in the data set listed under Mus musculus [4] was “Active” each time.

Take `C[C@H](CCCC(O)(C(F)(F)F)C(F)(F)F)[C@H]1CC[C@H]2/C(=C/Cn3cc(-c4ccccc4)nn3)CCC[C@]12C`: the Activity result in data set [2] is listed as “Toxic”. The inhibition entry in the data set listed under Mus musculus [3] and in the data set listed under Mus musculus [4] was “Active” in each case.

On to `C=C1CC[C@H](O)C/C1=C/C=C1\CCC[C@]2(C)[C@@H]([C@H](C)CCCC(C)(C)O)CC[C@@H]12` [CALCIFEDIOL ANHYDROUS], for which the Activity result in data set [2] and in data set [6] was “Toxic” throughout. The IC50 in [1] worked out at 1180 nM. Further, the inhibition entry in [5] was “Active”.

In the case of `C[C@H](CCC(F)(F)C(C)(C)O)[C@H]1CC[C@H]2/C(=C/Cn3nnnc3-c3ccccc3)CCC[C@]12C`, the Activity entry was “Non-Toxic” in the data set on CHO, “Non-Toxic” in data set [6] and “Toxic” in data set [7].

With `C[C@H](CCCC(C)(C)O)[C@H]1CC[C@H]2/C(=C/Cn3cnnn3)CCC[C@]12C`, the outcome on Vitamin D3 receptor was Active.

For the molecule `C[C@H](CCC(F)(F)C(C)(C)O)[C@H]1CC[C@H]2/C(=C/Cn3nnc(-c4ccc(F)cc4)n3)CCC[C@]12C`, the results for the Activity entry on Vitamin D3 receptor and in the data set with CHO were “Not Active” and “Non-Toxic”, respectively.
